Patent publication US9510598B2, “Nitrogen-containing heterocyclic compounds for plant disease control” (BAYER CROPSCIENCE AG, priority 2012, dated 2016)
Where two headings read alike, the source gives them in different places.

Columns and labels:
Septoria tritici = assay: In vivo preventive test on Septoria tritici (leaf spot on wheat); settings: 500 ppm; wheat plants sprayed 24 hours before contamination; grading 21 to 28 days after contamination vs control plants
Description: Wheat plants (“Scipion” variety), sown in starter cups on a 50/50 peat soil-pozzolana substrate and grown at 22° C. (12 h)/20° C. (12 h), are treated at the 1-leaf stage (10 cm height) by spraying with the active ingredient prepared as described above. Plants, used as controls, are treated with the mixture of acetone/tween/DMSO/water not containing the active material. After 24 hours, the plants are contaminated by spraying the leaves with an aqueous suspension of cryopreserved Septoria tritici spores (500 000 spores per ml). […] Grading (% of efficacy) is carried out 21 to 28 days after the contamination, in comparison with the control plants.

[1] = type: physicochemical
[2] = method [a]: HPLC/LC-MS on reversed phase at pH 2.7, 0.1% formic acid in water / acetonitrile, gradient 10% to 95% acetonitrile
[3] = method [a]: HPLC/LC-MS on reversed phase at pH 2.7, 0.1% formic acid in water / acetonitrile, linear gradient 10% to 95% acetonitrile
[4] = HPLC on reversed phase columns, method [a]: pH 2.7, 0.1% formic acid in water / acetonitrile, linear gradient 10% to 95% acetonitrile
[5] = HPLC on reversed phase columns, method [a]: pH 2.7, 0.1% formic acid in water and acetonitrile, linear gradient 10% to 95% acetonitrile

log P [1, 4]	Structure (SMILES)	% of efficacy (protection) (Septoria tritici)	also measured
–	CC#Cc1cnc2ccc(C3=NOC(C)(C(=O)NCc4cn(CC)nc4C)C3)cc2c1 (racemic) [compound 378]	97%	log P [1, 2]: 2.35[a]
–	C#Cc1cnc2ccc(C3=NOC(C)(C(=O)NCc4cnn(-c5ccccc5)n4)C3)cc2c1 (stereo not shown) [compound 189]	71%	log P [1, 3]: 3.11^[a]
–	C#Cc1cc2cc(C3=NOC(C)(C(=O)NC(C)C)C3)ccc2nc1OC (stereo not shown) [compound 133]	100%	log P [1, 3]: 3.09^[a]
–	CCn1cc(CNC(=O)C2(Cc3ccccc3)CC(c3ccc4ncc(Br)cc4c3)=NO2)c(C)n1 (stereo not shown) [compound 56]	70%	log P [1, 3]: 3.23^[a]
–	CCn1cc(CNC(=O)C2(CCl)CC(c3ccc4ncc(Br)cc4c3)=NO2)c(C)n1 (stereo not shown) [compound 138]	93%	log P [1, 3]: 2.56^[a]
–	C#Cc1cnc2ccc(C3=NOC(C)(C(=O)NCC(OC)OC)C3)cc2c1 (racemic) [compound 366]	100%	log P [1, 2]: 2.13[a]
–	COC1(C(=O)N(C)C)CC(c2ccc3ncc(Br)cc3c2)=NO1 (stereo not shown) [compound 396]	97%	log P [1, 2]: 2.51[a]
–	CCn1cc(CNC(=O)C2(C(C)C)CC(c3ccc4ncc(Br)cc4c3)=NO2)c(C)n1 (stereo not shown) [compound 61]	80%	log P [1, 3]: 2.94^[a]
–	CC(C)NC(=O)C1(C)CC(c2ccc3ncccc3c2)=NO1 (stereo not shown) [compound 143]	71%	log P [1, 3]: 1.44^[a]
–	CC(O)C1(C(=O)NCC2COC(C)(C)O2)CC(c2ccc3ncc(Br)cc3c2)=NO1 (mixture of isomers) [compound 555]	71%	–
2.7^[a]	CC1(C(=O)NCc2ccc3ncsc3c2)CC(c2ccc3ncc(Br)cc3c2)=NO1 (stereo not shown) [compound 243]	71%	–
–	CC(C)NC(=O)C12CC1C(c1ccc3ncc(Br)cc3c1)=NO2 (racemic) [compound 397]	75%	log P [1, 2]: 2.82[a]
–	CCOc1cnc2ccc(C3=NOC(C)(C(=O)NCc4cn(CC)nc4C)C3)cc2c1 (stereo not shown) [compound 417]	100%	log P [1, 2]: 2.09[a]
–	CCn1cc(CNC(=O)C2(CBr)CC(c3ccc4ncc(Br)cc4c3)=NO2)c(C)n1 (stereo not shown) [compound 137]	93%	log P [1, 3]: 2.62^[a]
–	Cn1ccc(NC(=O)C2(C(F)(F)F)CC(c3ccc4ncc(Br)cc4c3)=NO2)c1 (stereo not shown) [compound 108]	75%	log P [1, 3]: 3.5^[a]
2.38[a]	CCn1cc(CNC(=O)C2(F)CC(c3ccc4ncc(Br)cc4c3)=NO2)c(C)n1 (stereo not shown) [compound 279]	75%	–
–	CC(C)ONC(=O)C1(C)CC(c2ccc3ncc(Br)cc3c2)=NO1 (racemic) [compound 388]	100%	log P [1, 2]: 2.44[a]
–	C#Cc1cnc2ccc(C3=NOC(OC)(C(=O)NC(C)(C)c4ccon4)C3)cc2c1 (stereo not shown) [compound 509]	97%	log P [1, 2]: 2.52[a]
3.12[a]	CCn1cc(CNC(=O)C2(C)CC(c3ccc4nc(Cl)c(Br)cc4c3)=NO2)c(C)n1 (stereo not shown) [compound 286]	92%	–
–	C#Cc1cnc2ccc(C3=NOC(OC)(C(=O)N(OC)C(C)CC)C3)cc2c1 (stereo not shown) [compound 466]	97%	log P [1, 2]: 3.31[a]

log P [1, 4]	Structure (SMILES)	% of efficacy (protection) (Septoria tritici)	also measured
2.52[a]	C#Cc1cnc2ccc(C3=NOC(C)(C(=O)NC(CC)c4cn(CC)nc4C)C3)cc2c1 (stereo not shown) [compound 347]	100%	–
2.25[a]	C#CCCNC(=O)C1(C)CC(c2ccc3ncc(C#C)cc3c2)=NO1 (racemic) [compound 355]	100%	–
3.06[a]	C#Cc1cnc2ccc(C3=NOC(C)(C(=O)NC(C)c4ccccc4)C3)cc2c1 (stereo not shown) [compound 350]	100%	–
2.64[a]	Cc1cnc(CNC(=O)C2(C)CC(c3cc(Cl)c4ncc(Br)cc4c3)=NO2)cn1 (stereo not shown) [compound 556]	97%	–
3.35[a]	CC(NC(=O)C1(C)CC(c2ccc3ncc(Br)cc3c2)=NO1)c1ccsc1 (stereo not shown) [compound 295]	80%	–
–	CC(C)NC(=O)C1ON=C(c2ccc3ncc(Br)cc3c2)C1C (racemic) [compound 376]	86%	log P [1, 2]: 2.64[a]
–	Cc1ccc(CNC(=O)C2(C)CC(c3ccc4ncc(Br)cc4c3)=NO2)n1C (stereo not shown) [compound 152]	71%	log P [1, 3]: 3.21^[a]
–	C#Cc1cnc2ccc(C3=NOC(C)(C(=O)NCc4cn[nH]c4-c4cccs4)C3)cc2c1 (stereo not shown) [compound 192]	71%	log P [1, 3]: 2.25^[a]
2.77[a]	CCC(NC(=O)C1(C)CC(c2ccc3ncc(Br)cc3c2)=NO1)c1cn(CC)nc1C (stereo not shown) [compound 311]	100%	–
–	C#Cc1cnc2ccc(C3=NOC(C)(C(=O)NCc4ccc(C)n4C)C3)cc2c1 (stereo not shown) [compound 153]	71%	log P [1, 3]: 2.88^[a]
3.00[a]	C#Cc1cnc2ccc(C3=NOC(C)(C(=O)NC(C)(C)C)C3)cc2c1 (stereo not shown) [compound 322]	98%	–
–	Cc1cnc(CNC(=O)C2(C(C)O)CC(c3ccc4ncc(Br)cc4c3)=NO2)cn1 (mixture of isomers) [compound 562]	86%	–
–	CC1(C(=O)NC(C)(C#N)C2CC2)CC(c2ccc3ncc(Br)cc3c2)=NO1 (stereo not shown) [compound 301]	80%	–
–	C#Cc1cnc2ccc(C3=NOC(C)(C(=O)NCc4cncc(OC)n4)C3)cc2c1 (stereo not shown) [compound 791]	–	log P [1, 5]: 2.25[a]
3.00[a]	CC(C)NC(=O)C1(C)CC(c2ccc3nc(C#N)c(Br)cc3c2)=NO1 (stereo not shown) [compound 303]	–	–
–	CC1(C(=O)NCc2ccsc2)CC(c2ccc3ncc(Br)cc3c2)=NO1 (stereo not shown) [compound 479]	–	log P [1, 2]: 3.07[a]
–	C#Cc1cnc2ccc(C3=NOC(OC)(C(=O)NCc4cn(CC)nc4C(F)(F)F)C3)cc2c1 (racemic) [compound 820]	–	log P [1, 5]: 2.80[a]
–	CC(C)NC(=O)C1(CBr)CC(c2ccc3ncc(Br)cc3c2)=NO1 (stereo not shown) [compound 81]	–	log P [1, 3]: 3.04^[a]
–	CC1(C(=O)NCCc2ccc(Cl)cc2)CC(c2ccc3ncc(Br)cc3c2)=NO1 (stereo not shown) [compound 111]	–	log P [1, 3]: 3.68^[a]
–	CC1(C(=O)NC(CN2CCCC2)C2CC2)CC(c2ccc3ncc(Br)cc3c2)=NO1 (stereo not shown) [compound 364]	–	log P [1, 2]: 1.53[a]

log P [1, 4]	Structure (SMILES)	% of efficacy (protection) (Septoria tritici)	also measured
–	CCC1(C(=O)NCC2COC(C)(C)O2)CC(c2ccc3ncc(Br)cc3c2)=NO1 (stereo not shown) [compound 499]	–	log P [1, 2]: 2.99[a]
2.40[a]	CC1(C(=O)NC2CC2)CC(c2ccc3ncc(Br)cc3c2)=NO1 (stereo not shown) [compound 317]	–	–
–	C#Cc1cnc2ccc(C3=NOC(C)(C(=O)NCc4cncc(OC)c4)C3)cc2c1 (stereo not shown) [compound 696]	–	log P [1, 5]: 1.59[a]
–	O/N=C/c1ccc2ncc(Cl)cc2c1 [1-(3-chloroquinolin-6-yl)-N-hydroxymethanimine]	–	chromatographic logP ([1]; reversed phase HPLC column, HPLC reversed phase, pH 2.7, 0.1% formic acid in water / acetonitrile, linear gradient 10% to 95% acetonitrile, calibration with alkan-2-ones, read-out: log P (HCOOH)): 1.78
2.17[a]	C#Cc1cnc2ccc(C3=NOC(C)(C(=O)NCc4cnn(CC(F)F)c4)C3)cc2c1 (stereo not shown) [compound 647]	–	–
3.44[a]	C#Cc1cnc2ccc(C3=NOC(C)(C(=S)NCC4COC(C)(C)O4)C3)cc2c1 (stereo not shown) [compound 513]	–	–
–	O=C(NC1CC1)C12CC1C(c1ccc3ncc(Br)cc3c1)=NO2 (racemic) [compound 398]	–	log P [1, 2]: 2.50[a]
–	CC1(C(=O)NCc2cncc(Cl)n2)CC(c2ccc3ncc(Br)cc3c2)=NO1 (stereo not shown) [compound 792]	–	log P [1, 5]: 2.71[a]
–	CC1(C(=O)NCCC#N)CC(c2ccc3ncc(Br)cc3c2)=NO1 (stereo not shown) [compound 720]	–	log P [1, 5]: 2.15[a]
–	COc1nc2ccc(C3=NOC(C)(C(=O)NC(C)C)C3)cc2cc1I (stereo not shown) [compound 485]	–	log P [1, 2]: 3.72[a]
–	C#Cc1cnc2ccc(C3=NOC(C)(C(=O)NC4CC(C)(C)N(C)C(C)(C)C4)C3)cc2c1 (stereo not shown) [compound 217]	–	log P [1, 3]: 1.34^[a]
–	CCc1ccnc(CNC(=O)C2(C)CC(c3ccc4ncc(Br)cc4c3)=NO2)c1 (stereo not shown) [compound 752]	–	log P [1, 5]: 1.82[a]
–	C#Cc1cnc2ccc(C3=NOC(OC)(C(=O)NCCC4CCCO4)C3)cc2c1 (racemic) [compound 818]	–	log P [1, 5]: 2.11[a]
2.23[a]	CC(C)NC(=O)C1(C(C)O)CC(c2ccc3ncc(Br)cc3c2)=NO1 (stereo not shown) [compound 552]	–	–
2.76^[a]	CCCSc1cnc2ccc(C3=NOC(C)(C(=O)NCc4cn(CC)nc4C)C3)cc2c1 (stereo not shown) [compound 264]	–	–
–	Cc1cccc(CNC(=O)C2(C)CC(c3ccc4ncc(Br)cc4c3)=NO2)n1 (stereo not shown) [compound 690]	–	log P [1, 5]: 1.60[a]
–	CC1(C(=O)NCc2ccncc2)CC(c2ccc3ncc(Br)cc3c2)=NO1 (stereo not shown) [compound 102]	–	log P [1, 3]: 1.34^[a]
3.00[a]	C#Cc1cnc2c(C)cc(C3=NOC(OC)(C(=O)NCCCOCC)C3)cc2c1 (stereo not shown) [compound 607]	–	–
–	CCOC1C(c2ccc3ncc(Br)cc3c2)=NOC1(C)C(=O)NC(C)C (racemic) [compound 393]	–	log P [1, 2]: 3.35[a]

Structure (SMILES)	log P [1, 4]	% of efficacy (protection) (Septoria tritici)	also measured
COC1(C(=O)NC(C)C)CC(c2ccc3ncc(Br)cc3c2)=NO1 (single isomer, unassigned) [compound 285]	2.57[a]	100%	–
